From patent US11168089B2, “Fused pyrimidine derivatives as A2A / A2B inhibitors” (Incyte Corporation, priority 2018, dated 2021)

What was measured:
Adenosine A2A receptor = Adenosine A2A receptor (Homo sapiens (Human), UniProt P29274); assay: A2A Tag-Lite HTRF assay; assay type: binding; details: Tag-Lite Adenosine A2A labeled cells, displacement of A2A Receptor Red antagonist fluorescent ligand 12.5 nM; read-out: A2A_Ki
From the text: Example C. A2A Tag-Lite® HTRF Assay
The final concentration of DMSO was 1%.

[1] = biological target: human adenosine A2B receptor (Homo sapiens (Human), UniProt P29275); assay: Adenosine A2B Receptor Cyclic AMP GS Assay; assay type: cell-based; details: HEK-293 cells expressing human A2B receptor, agonist NECA 12 nM, cAMP accumulation; read-out: A2B_cAMP_EC50
Description: Example B. Adenosine A2B Receptor Cyclic AMP GS Assay
Stably transfected HEK-293 cells expressing the human adenosine A2B receptor (Perkin Elmer) were maintained in MEM culture medium with 10% FBS and 100 μg/mL Geneticin (Life Technologies). 18 to 24 hours prior to assay, geneticin was removed from culture. The cisbio cAMP-GS Dynamic kit utilizing the FRET (Fluorescence Resonance Energy Transfer) technology was used to measure cAMP accumulation in the cells. Compounds of the present disclosure at an appropriate concentration were mixed with 10000 cells/well in white 96 well half area plates (Perkin Elmer) for 30 min at room temperature gently shaking. Agonist, NECA (R&D Technologies) at 12 nM was added to each well for 60 min at room temperature gently shaking. Detection reagents, d2-labeled cAMP (acceptor) and anti-cAMP cryptate (donor) were added to each well for 60 min at RT gently shaking. Plates were read on Pherastar (BMG Labtech), fluorescence ratio 665/620 was calculated and EC50 determination was performed by fitting the curve of percent of control versus the log of the compound concentration using GraphPad Prism.

human adenosine A2B receptor, sequence (P29275 whole entry): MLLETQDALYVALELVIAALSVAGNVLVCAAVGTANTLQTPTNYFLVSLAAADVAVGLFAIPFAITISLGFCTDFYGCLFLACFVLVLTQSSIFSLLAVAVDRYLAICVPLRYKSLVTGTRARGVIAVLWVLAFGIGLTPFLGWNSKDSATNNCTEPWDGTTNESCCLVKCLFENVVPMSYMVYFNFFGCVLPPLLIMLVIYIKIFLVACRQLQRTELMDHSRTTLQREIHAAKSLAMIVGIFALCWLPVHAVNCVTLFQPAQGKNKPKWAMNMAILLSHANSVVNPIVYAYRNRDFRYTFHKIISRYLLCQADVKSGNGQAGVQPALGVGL
Adenosine A2A receptor, sequence (P29274 whole entry): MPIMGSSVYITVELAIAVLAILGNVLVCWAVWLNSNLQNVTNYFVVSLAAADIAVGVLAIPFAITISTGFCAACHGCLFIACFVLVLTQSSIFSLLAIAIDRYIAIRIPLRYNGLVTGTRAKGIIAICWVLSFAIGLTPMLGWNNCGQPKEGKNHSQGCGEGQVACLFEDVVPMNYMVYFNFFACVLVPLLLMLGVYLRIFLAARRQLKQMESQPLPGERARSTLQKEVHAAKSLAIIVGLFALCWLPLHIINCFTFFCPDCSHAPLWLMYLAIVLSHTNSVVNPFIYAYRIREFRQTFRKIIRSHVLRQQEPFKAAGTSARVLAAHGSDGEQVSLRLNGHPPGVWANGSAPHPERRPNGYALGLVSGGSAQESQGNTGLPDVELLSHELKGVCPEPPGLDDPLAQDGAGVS

Ki (Adenosine A2A receptor) [nM]	EC50 [1] [nM]	SMILES
< 10	10 to 100	CCN1CCC(NCc2cccc(F)c2Cc2nc3cc(-c4cccc(C#N)c4F)nc(N)n3n2)C1=O (stereo not shown) [Example 24, 3-(5-Amino-2-(2-(((1-ethyl-2-oxopyrrolidin-3-yl)amino)methyl)-6-fluorobenzyl)-[1,2,4]triazolo[1,5-c]pyrimidin-7-yl)-2-fluorobenzonitrile]
< 10	10 to 100	CC(=O)N[C@H]1CCN(Cc2cccc(F)c2Cc2nc3cc(-c4cccc(C#N)c4F)nc(N)n3n2)C1 [Example 25, (S)—N-(1-(2-((5-Amino-7-(3-cyano-2-fluorophenyl)-[1,2,4]triazolo[1,5-c]pyrimidin-2-yl)methyl)-3-fluorobenzyl)pyrrolidin-3-yl)acetamide]
< 10	10 to 100	N#Cc1cccc(-c2cc3nc(Cc4c(F)cccc4CN4CC[C@H](C#N)C4)nn3c(N)n2)c1F [Example 27, (S)-1-(2-((5-Amino-7-(3-cyano-2-fluorophenyl)-[1,2,4]triazolo[1,5-c]pyrimidin-2-yl)methyl)-3-fluorobenzyl)pyrrolidine-3-carbonitrile]
< 10	10 to 100	CN1CCC2(CN(Cc3cccc(F)c3Cc3nc4cc(-c5cccc(C#N)c5F)nc(N)n4n3)C2)C1=O [Example 28, 3-(5-Amino-2-(2-fluoro-6-((6-methyl-5-oxo-2,6-diazaspiro[3.4]octan-2-yl)methyl)benzyl)-[1,2,4]triazolo[1,5-c]pyrimidin-7-yl)-2-fluorobenzonitrile]
< 10	10 to 100	CN1CCC(NCc2cccc(F)c2Cc2nc3cc(-c4cccc(C#N)c4F)nc(N)n3n2)C1=O (stereo not shown) [Example 29, 3-(5-Amino-2-(2-fluoro-6-(((1-methyl-2-oxopyrrolidin-3-yl)amino)methyl)benzyl)-[1,2,4]triazolo[1,5-c]pyrimidin-7-yl)-2-fluorobenzonitrile]

Further lines, the compound ahead of its results:

SMILES	Ki (Adenosine A2A receptor) [nM]	EC50 [1] [nM]
N#Cc1cccc(-c2cc3nc(Cc4c(F)cccc4CN4CCC[C@H]4c4nn[nH]n4)nn3c(N)n2)c1F [Example 26, (S)-3-(2-(2-((2-(2H-Tetrazol-5-yl)pyrrolidin-1-yl)methyl)-6-fluorobenzyl)-5-amino-[1,2,4]triazolo[1,5-c]pyrimidin-7-yl)-2-fluorobenzonitrile]	< 10	< 10
CCN(Cc1cccc(F)c1Cc1nc2cc(-c3cccc(C#N)c3F)nc(N)n2n1)C1CCN(CC(=O)O)C1=O (stereo not shown) [Example 30, 2-(3-((2-((5-Amino-7-(3-cyano-2-fluorophenyl)-[1,2,4]triazolo[1,5-c]pyrimidin-2-yl)methyl)-3-fluorobenzyl)(ethyl)amino)-2-oxopyrrolidin-1-yl)acetic acid]	< 10	< 10
CCN(Cc1cccc(F)c1Cc1nc2cc(-c3cccc(C#N)c3F)nc(N)n2n1)C1CCN(C)C1=O (stereo not shown) [Example 31, 3-(5-Amino-2-(2-((ethyl(1-methyl-2-oxopyrrolidin-3-yl)amino)methyl)-6-fluorobenzyl)-[1,2,4]triazolo[1,5-c]pyrimidin-7-yl)-2-fluorobenzonitrile]	< 10	< 10
CCN(Cc1cccc(F)c1Cc1nc2cc(-c3cccc(C#N)c3F)nc(N)n2n1)[C@@H]1CCNC1=O [Example 32, (R)-3-(5-Amino-2-(2-((ethyl(2-oxopyrrolidin-3-yl)amino)methyl)-6-fluorobenzyl)-[1,2,4]triazolo[1,5-c]pyrimidin-7-yl)-2-fluorobenzonitrile]	< 10	10 to 100
N#Cc1cccc(-c2cc3nc(NCc4cccc(-c5cnn(C6CCNCC6)c5)n4)nn3c(N)n2)c1F [Example 33, 3-(5-Amino-2-(((6-(1-(piperidin-4-yl)-1H-pyrazol-4-yl)pyridin-2-yl)methyl)amino)-[1,2,4]triazolo[1,5-c]pyrimidin-7-yl)-2-fluorobenzonitrile]	< 10	< 10
N#Cc1cccc(-c2cc3nc(NCc4cccc(-c5cnn(CCN6CCOCC6)c5)n4)nn3c(N)n2)c1F [Example 34, 3-(5-Amino-2-(((6-(1-(2-morpholinoethyl)-1H-pyrazol-4-yl)pyridin-2-yl)methyl)amino)-[1,2,4]triazolo[1,5-c]pyrimidin-7-yl)-2-fluorobenzonitrile]	< 10	10 to 100
